This is an account of results in patent US20100160314A1, “Small Molecule Inhibitors of Toll-Like Receptor 9” (priority 2006, published 2010).

Like-named read-outs stand apart in the source and are kept apart here.

Common to all, as to type: cell-based
The target of one assay is T1, TLR8 (Homo sapiens, UniProt Q9NR97).
T1 construct: endogenous in cells; host or cells: freshly isolated human PBMC from donor buffy coats
T1 sequence (Q9NR97 27-1041): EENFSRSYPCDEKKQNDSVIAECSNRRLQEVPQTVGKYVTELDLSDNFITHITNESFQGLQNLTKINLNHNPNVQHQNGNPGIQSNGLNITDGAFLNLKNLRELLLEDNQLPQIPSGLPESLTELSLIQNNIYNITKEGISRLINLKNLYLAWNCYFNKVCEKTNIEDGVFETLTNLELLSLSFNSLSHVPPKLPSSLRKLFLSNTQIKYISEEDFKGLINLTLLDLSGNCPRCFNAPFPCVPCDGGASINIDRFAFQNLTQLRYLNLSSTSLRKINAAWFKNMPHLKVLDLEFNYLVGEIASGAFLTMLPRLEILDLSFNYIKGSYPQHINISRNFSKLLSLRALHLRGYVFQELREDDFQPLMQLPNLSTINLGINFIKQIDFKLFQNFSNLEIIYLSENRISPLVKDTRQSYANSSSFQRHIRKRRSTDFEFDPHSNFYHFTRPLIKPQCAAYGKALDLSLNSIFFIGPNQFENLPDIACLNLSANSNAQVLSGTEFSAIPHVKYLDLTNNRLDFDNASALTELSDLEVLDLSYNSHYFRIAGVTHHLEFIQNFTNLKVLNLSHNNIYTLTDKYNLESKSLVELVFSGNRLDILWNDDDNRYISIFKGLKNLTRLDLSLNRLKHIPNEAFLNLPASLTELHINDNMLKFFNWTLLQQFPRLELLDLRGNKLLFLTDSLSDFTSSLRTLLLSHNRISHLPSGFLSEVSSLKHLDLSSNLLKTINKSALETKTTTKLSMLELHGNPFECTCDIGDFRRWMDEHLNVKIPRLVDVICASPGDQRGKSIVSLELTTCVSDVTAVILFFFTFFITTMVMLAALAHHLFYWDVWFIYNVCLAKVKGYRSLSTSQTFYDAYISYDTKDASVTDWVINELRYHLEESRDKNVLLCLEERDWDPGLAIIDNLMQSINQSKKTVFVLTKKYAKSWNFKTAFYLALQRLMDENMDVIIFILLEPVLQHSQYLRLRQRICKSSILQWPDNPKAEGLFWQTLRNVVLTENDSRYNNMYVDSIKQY
Description: Human PBMC, TNF-α release using ORN R-1362+DOTAP (TLR8 antagonism). From the text: (§1) Peripheral blood mononuclear cell (PBMC) buffy coat preparations from healthy male and female human donors were obtained from the Institute for Hemostaseology and Transfusion Medicine of the University of Düsseldorf (Germany).
(§2) PBMC were purified by centrifugation over Ficoll-Hypaque (Sigma). Purified PBMC were washed twice with 1×PBS and resuspended in RPMI 1640 culture medium supplemented with 5% (v/v) heat-inactivated human AB serum (BioWhittaker, Belgium) or 10% (v/v) heat-inactivated fetal calf serum (FCS), 1.5 mM L-glutamine, 100 U/ml penicillin and […] streptomycin (all from Sigma, Deisenhofen, Germany).
(§3) Freshly isolated PBMC were resuspended at a concentration of 3×10^6/ml to 5×10^6/ml with RPMI 1640 culture medium and added to 96-well round-bottomed plates (150 μl/well) which had previously received nothing or selected concentrations (typically 10 μM-0.085 nM as 7-fold serial dilutions) of small molecule. To assay antagonist reaction for TLR9, 1 μM CpG oligodeoxynucleotide (ODN) 2395 ([…]; SEQ ID NO:3) was added to wells containing small molecules. To assay antagonist reaction for TLR7 and TLR8, 0.5 μM oligoribonucleotide (ORN) R-1362 ([…]; SEQ ID NO:4) complexed to 5 μg/ml DOTAP was added to wells containing small molecules. To calculate response to CpG ODN 2395 alone or ORN R-1362+DOTAP alone, wells without small molecules were stimulated with CpG ODN 2395 or ORN R-1362+DOTAP.
(§4) Cells were cultured in a humidified incubator at 37° C. for 16 h. Culture supernatants were then collected and, if not used immediately, frozen at −20° C. until required.
(§5) Amounts of cytokines in the supernatants were assessed using enzyme-linked immunosorbent assays (ELISA) specific for IFN-α or TNF-α using commercially available antibodies or kits from BD Pharmingen or Diaclone, respectively. IFN-α readout using CpG 2395 was used to measure TLR9 response. IFN-α readout using ORN R-1362+DOTAP was used to measure TLR7 response. TNF-α release using R-1362 complexed to DOTAP was used to measure TLR8-mediated immune response.

The target of the next assay is T2, TLR7 (Homo sapiens, UniProt Q9NYK1).
T2 construct: endogenous in cells; host or cells: freshly isolated human PBMC from donor buffy coats
T2 sequence (Q9NYK1 27-1049): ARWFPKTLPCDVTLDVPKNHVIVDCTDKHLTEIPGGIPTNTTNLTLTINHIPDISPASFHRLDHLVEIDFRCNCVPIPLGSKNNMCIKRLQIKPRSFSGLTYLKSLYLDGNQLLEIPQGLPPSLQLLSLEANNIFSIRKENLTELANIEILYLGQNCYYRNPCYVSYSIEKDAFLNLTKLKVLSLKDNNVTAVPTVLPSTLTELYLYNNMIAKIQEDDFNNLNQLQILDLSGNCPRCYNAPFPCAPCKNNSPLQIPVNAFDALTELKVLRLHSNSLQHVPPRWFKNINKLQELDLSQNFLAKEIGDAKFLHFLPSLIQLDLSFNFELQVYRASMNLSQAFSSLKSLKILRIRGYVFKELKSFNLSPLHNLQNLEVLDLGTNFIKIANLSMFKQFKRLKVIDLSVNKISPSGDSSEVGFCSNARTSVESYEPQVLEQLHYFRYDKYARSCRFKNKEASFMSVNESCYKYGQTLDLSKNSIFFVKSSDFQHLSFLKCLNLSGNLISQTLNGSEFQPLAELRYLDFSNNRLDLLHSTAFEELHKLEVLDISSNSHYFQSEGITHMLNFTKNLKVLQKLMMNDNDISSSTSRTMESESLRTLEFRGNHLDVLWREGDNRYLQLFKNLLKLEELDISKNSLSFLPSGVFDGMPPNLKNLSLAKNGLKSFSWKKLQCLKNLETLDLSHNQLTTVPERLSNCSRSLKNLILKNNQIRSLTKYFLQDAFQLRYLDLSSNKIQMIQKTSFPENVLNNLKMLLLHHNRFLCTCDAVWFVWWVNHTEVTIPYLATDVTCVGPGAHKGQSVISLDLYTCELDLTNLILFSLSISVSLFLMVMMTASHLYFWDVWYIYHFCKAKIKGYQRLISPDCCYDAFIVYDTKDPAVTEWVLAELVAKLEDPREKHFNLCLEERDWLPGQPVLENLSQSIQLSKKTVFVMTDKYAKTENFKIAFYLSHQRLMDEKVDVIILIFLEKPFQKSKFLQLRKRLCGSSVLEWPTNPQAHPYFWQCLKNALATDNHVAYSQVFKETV
Description: Human PBMC, IFN-α readout using ORN R-1362+DOTAP (TLR7 antagonism).
From the text: as §1, §2, §3, §4, §5

The next assay concerns the target T3, TLR9 (Homo sapiens, UniProt Q9NR96).
T3 construct: endogenous in cells; host or cells: freshly isolated human PBMC from donor buffy coats
T3 sequence (Q9NR96 26-1032): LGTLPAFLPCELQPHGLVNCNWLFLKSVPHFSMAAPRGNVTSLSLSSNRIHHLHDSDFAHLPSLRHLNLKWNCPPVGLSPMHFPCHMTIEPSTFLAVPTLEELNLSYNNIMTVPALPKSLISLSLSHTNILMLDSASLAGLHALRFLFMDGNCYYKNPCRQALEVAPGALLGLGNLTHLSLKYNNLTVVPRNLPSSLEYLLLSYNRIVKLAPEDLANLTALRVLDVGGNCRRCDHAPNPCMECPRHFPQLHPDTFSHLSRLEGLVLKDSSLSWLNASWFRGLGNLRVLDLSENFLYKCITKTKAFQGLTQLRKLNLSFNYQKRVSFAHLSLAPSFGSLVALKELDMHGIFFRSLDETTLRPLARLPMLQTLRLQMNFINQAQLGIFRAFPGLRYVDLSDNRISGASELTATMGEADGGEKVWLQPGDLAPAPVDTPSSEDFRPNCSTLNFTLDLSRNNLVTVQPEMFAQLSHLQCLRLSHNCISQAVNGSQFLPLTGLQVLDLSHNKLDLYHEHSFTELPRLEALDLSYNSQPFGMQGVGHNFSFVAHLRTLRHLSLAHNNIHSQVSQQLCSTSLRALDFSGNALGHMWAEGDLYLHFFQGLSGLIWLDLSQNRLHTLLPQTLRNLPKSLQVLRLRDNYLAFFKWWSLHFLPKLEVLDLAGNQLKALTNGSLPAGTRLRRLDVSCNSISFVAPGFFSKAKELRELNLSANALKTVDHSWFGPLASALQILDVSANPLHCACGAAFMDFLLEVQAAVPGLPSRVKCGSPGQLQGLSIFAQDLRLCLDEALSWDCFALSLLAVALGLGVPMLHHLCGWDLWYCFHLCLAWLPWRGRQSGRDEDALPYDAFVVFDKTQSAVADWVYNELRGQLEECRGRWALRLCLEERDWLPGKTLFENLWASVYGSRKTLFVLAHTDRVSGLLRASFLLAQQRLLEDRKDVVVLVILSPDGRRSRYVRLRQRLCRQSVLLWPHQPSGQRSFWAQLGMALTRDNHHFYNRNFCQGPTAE
Briefly: Human PBMC, IFN-α readout using CpG ODN 2395 (TLR9 antagonism).
From the text: as §1, §2, §3, §4, §5

The mark [1] stands for this setting: in vitro testing as described in Example 63, read-out: TLR8 IC50, Experimental.
[2] abbreviates: in vitro testing as described in Example 63, read-out: TLR7 IC50, Experimental.
[3] abbreviates: in vitro testing as described in Example 63, read-out: TLR9 IC50, Experimental.

For orientation: IC50 means the concentration that gives 50% inhibition. For `CN1CCN(c2ccc(-c3cc(NCCN4CCOCC4)c4ncccc4n3)cc2)CC1` [6 (BIV)], the IC50 at TLR8 (setting [1]) is 100 nM; on TLR7 (setting [2]) it was 70 nM; on TLR9 (setting [3]) it was 44 nM.

With `CN1CCN(c2ccc(-c3cc(NCCN4CCOCC4)c4ncccc4n3)cc2)CC1` [6 (A3I)], the IC50 on TLR8 (human PBMC, 0.5 μM ORN R-1362 + 5 μg/ml DOTAP, 16 h, TNF-α ELISA, read-out: IC50 TLR8, Experimental) was determined as 110 nM; at TLR7 (human PBMC, 0.5 μM ORN R-1362 + 5 μg/ml DOTAP, 16 h, IFN-α ELISA, read-out: IC50 TLR7, Experimental), 720 nM; on TLR9 (human PBMC, 1 μM CpG ODN 2395, 16 h, IFN-α ELISA, read-out: IC50 TLR9, Experimental) it was 73 nM.

For `CN1CCN(c2ccc3nc(-c4ccccc4)nc(NCCN4CCOCC4)c3c2)CC1` [Compound 8 (Example 72)], the half-inhibitory concentration (IC50) worked out at 18 nM on TLR8 (setting [1]), 76 nM at TLR7 (setting [2]) and 78 nM at TLR9 (setting [3]).

As for `CN1CCN(c2ccc(-c3cc(NCCN4CCOCC4)c4ncccc4n3)cc2)CC1` [6 (CaI)], the IC50 at TLR8 (setting [1]) was determined as 140 nM; on TLR7 (setting [2]) it was 790 nM; on TLR9 (setting [3]), 250 nM.

For `CN1CCN(c2ccc3nc(-c4ccccc4)cc(NCCN4CCOCC4)c3c2)CC1` [5 (DI)], the results for the IC50 on TLR8 (setting [1]), on TLR7 (setting [2]) and at TLR9 (setting [3]) were 28 nM, 75 nM and 72 nM, respectively.

On to `CN1CCN(c2cc(NCCN3CCOCC3)c3cc(-c4ccccc4)ccc3n2)CC1` [6 (CI)], for which the IC50 at TLR8 (setting [1]) was 600 nM; at TLR7 (setting [2]) it was 200 nM; on TLR9 (setting [3]), 200 nM.
